Results reported in patent US9573966B2, “Anti-cancer activity of novel bicyclic heterocycles” (Katholieke Universiteit Leuven, K.U.Leuven R&D, priority 2010, dated 2017).

How the values were obtained:
HSB-2 cells = experiment: Inhibition of HSB-2 leukemic cell line proliferation (WST-1); format: cell-based, human; conditions: cytotoxicity on HSB-2 cells, two days incubation, WST-1 read-out
Experimental: (§1) HSB2 cell line, a human acute lymphoblastic leukemia (ATCC; CCL-120.1) cell line, was grown in RPMI-1640 medium (Lonza, Belgium) supplemented with 10% fetal calf serum (Hyclone, US) and antibiotics. Exponential growing phase cells were seed in flat bottom 96-well microplates (TTP, Switzerland) at 50000 cells per well in 220 μl of medium with compounds (in different concentrations) and incubated for two days at 37° C., 5% CO2. After incubation, 100 μl of supernatant were removed and 10 μl of WST-1 (Roche, Switzerland) were added. After 2 hour incubation at 37° C., 5% CO2, optical densities were measured at 450 nm. Proliferation is calculated with respect of control points (no compound and treatment with Triton X100 to have maximum and minimum proliferation data). The IC50 was determined from a graph with at least four points, each derived from the mean of at least 2 experiments. […] The results are shown in Table 1 for a number of compounds.

HL-60 cells = experiment: Inhibition of HL-60 leukemic cell line proliferation (WST-1); format: cell-based, human; conditions: cytotoxicity on HL-60 cells, two days incubation, WST-1 read-out
Experimental: as §1, with “HL-60 cell” for “HSB2 cell”, “human promyelocytic” for “human acute lymphoblastic”, “(ATCC; CCL-240)” for “(ATCC; CCL-120.1)”, “Table 2” for “Table 1”

Compound | IC50 (HSB-2 cells; Homo sapiens, HSB2, 48 h) [µM] | IC50 (HL-60 cells; Homo sapiens, 48 h) [µM] | IC50 (HSB-2 cells) [µM] | IC50 (HL-60 cells) [µM]
Nc1nc(N2CCN(C(=O)Nc3ccc(Cl)cc3)CC2)c2nc(-c3cccnc3)sc2n1 [Example 277, 4-(5-amino-2-(pyridin-3-yl)thiazolo[5,4-d]pyrimidin-7-yl)-N-(4-chlorophenyl)piperazine-1-carboxamide] | 0.74 | 0.83 |  | 
Nc1nc(N2CCN(C(=O)COc3ccc(Cl)cc3)CC2)c2nc(CCc3ccccc3)oc2n1 [Example 189, 5-amino-2-(2-phenylethyl)-7-[4-(4-chlorophenoxyacetyl)piperazin-1-yl]oxazolo[5,4-d]pyrimidine] | > 10 | > 10 |  | 
C[S+]([O-])c1nc2c(N3CCN(C(=O)COc4ccc(Cl)cc4)CC3)nc(N)nc2s1 (centres unmarked) [Example 126, 5-amino-7-[4-(4-chlorophenoxyacetyl)piperazin-1-yl]-2-methylsulfinyl-thiazolo[5,4-d]pyrimidine] | 5.47 | 3.82 |  | 
COc1ccc(CNC(=O)N2CCN(c3nc(N)nc4sc(-c5cccnc5)nc34)CC2)cc1 [Example 278, 4-(5-amino-2-(pyridin-3-yl)thiazolo[5,4-d]pyrimidin-7-yl)-N-(4-methoxybenzyl)piperazine-1-carboxamide] | 0.75 | 0.68 |  | 
Nc1nc(N2CC[C@@H](NC(=O)c3ccc(Cl)cc3)C2)c2cc(-c3ccc(F)cc3)sc2n1 [Example 341, (R)—N-(1-(2-amino-6-(4-fluorophenyl)thieno[2,3-d]pyrimidin-4-yl)pyrrolidin-3-yl)-4-chlorobenzamide] | > 10 | > 10 |  | 
Cc1cccc(OCC(=O)N2CCN(c3nc(N)nc4sc(-c5ccc(F)cc5)nc34)CC2)c1 [Example 211, 1-(4-(5-amino-2-(4-fluorophenyl)thiazolo[5,4-d]pyrimidin-7-yl)piperazin-1-yl)-2-(m-tolyloxy)ethanone] | 0.47 | 0.69 |  | 
N#Cc1ccc(NC(=O)N2CCN(c3nc(N)nc4sc(Cc5ccc(F)cc5)nc34)CC2)cc1 [Example 232, 4-(5-amino-2-(4-fluorobenzyl)thiazolo[5,4-d]pyrimidin-7-yl)-N-(4-cyanophenyl)piperazine-1-carboxamide] | 6.89 | 9.89 |  | 
Nc1nc(N2CCN(C(=O)COc3ccc(Cl)cc3)CC2)c2ccsc2n1 [Example 351, 1-(4-(2-aminothieno[2,3-d]pyrimidin-4-yl)piperazin-1-yl)-2-(4-chlorophenoxy)ethanone] | 1.7 | 5.08 |  | 
Nc1nc(N2CCN(C(=O)COc3ccc(Cl)cc3)CC2)c2nc(CCc3cccs3)sc2n1 [Example 154, 5-amino-2-(2-thiophen-2-ylethyl)-7-(4-[2-(4-chloro-phenoxy)acetyl]piperazin-1-yl)thiazolo[5,4-d]pyrimidine] | 4.04 | 6.45 |  | 
COc1ccc(-c2nc3c(N4CCN(C(=O)COc5ccc(Cl)cc5)CC4)nc(N)nc3[nH]2)cc1OC [Example 390, 1-(4-(2-amino-8-(3,4-dimethoxyphenyl)-9H-purin-6-yl)piperazin-1-yl)-2-(4-chlorophenoxy)ethanone] | 0.45 | > 10 |  | 
Nc1nc(N2CCN(C(=O)COc3ccc(Cl)cc3)CC2)c2nc(-c3ccc[n+]([O-])c3)sc2n1 [Example 121b, 5-amino-7-[4-(4-chlorophenoxyacetyl)piperazin-1-yl]-2-(N-oxopyridine-3-yl)thiazolo[5,4-d]pyrimidine] |  |  | 6.19 | 4.89
Cc1cccc(NC(=O)N2CCN(c3nc(N)nc4sc(CCc5ccc(F)cc5)nc34)CC2)c1 [Example 133, 5-amino-2-[2-(4-fluorophenyl)ethyl]-7-(4-m-tolylcarbamoylpiperazin-1-yl)-thiazolo[5,4-d]pyrimidine] | 12.3 | > 10 |  | 
Nc1nc(N2CCN(C(=O)CCc3ccccc3)CC2)c2cc(-c3ccc(F)cc3)sc2n1 [Example 343, 1-(4-(2-amino-6-(4-fluorophenyl)thieno[2,3-d]pyrimidin-4-yl)piperazin-1-yl)-3-phenylpropan-1-one] | > 10 | > 10 |  | 
Nc1nc(N2CCN(C(=O)CCc3ccc(F)cc3)CC2)c2nc(-c3ccc(F)cc3)sc2n1 [Example 236, 1-(4-(5-amino-2-(4-fluorophenyl)thiazolo[5,4-d]pyrimidin-7-yl)piperazin-1-yl)-3-(4-fluorophenyl)propan-1-one] | 5.57 | 8.2 |  | 
N#Cc1ccc(NC(=O)N2CCN(c3nc(N)nc4sc(-c5ccc(F)cc5)nc34)CC2)cc1 [Example 216, 4-(5-amino-2-(4-fluorophenyl)thiazolo[5,4-d]pyrimidin-7-yl)-N-(4-cyanophenyl)piperazine-1-carboxamide] | 4.9 | 6.41 |  | 
Nc1nc(N2CCN(C(=O)COc3ccccc3)CC2)c2nc(CCc3ccc(F)cc3)sc2n1 [Example 134, 5-amino-2-[2-(4-fluorophenyl)ethyl]-7-(4-[2-phenoxyacetyl]piperazin-1-yl)-thiazolo[5,4-d]pyrimidine] | > 10 | > 10 |  | 
COc1ccc(OCC(=O)N2CCN(c3nc(N)nc4sc(-c5ccccc5)nc34)CC2)cc1 [Example 208, 1-(4-(5-amino-2-phenylthiazolo[5,4-d]pyrimidin-7-yl)piperazin-1-yl)-2-(4-methoxyphenoxy)ethanone] | 0.06 | 0.07 |  | 
Nc1nc(N2CCCN(C(=O)COc3ccc(Cl)cc3)CC2)c2nc(-c3ccc(F)cc3)[nH]c2n1 [Example 421, 1-(4-(2-amino-8-(4-fluorophenyl)-9H-purin-6-yl)-1,4-diazepan-1-yl)-2-(4-chlorophenoxy)ethanone] | > 10 | > 10 |  | 
Nc1nc(N2CCN(C(=O)COc3ccc(Cl)cc3)CC2)c2nc(CCc3ccc(F)cc3)oc2n1 [Example 172, 1-(4-(5-amino-2-(4-fluorophenethyl)oxazolo[5,4-d]pyrimidin-7-yl)piperazin-1-yl)-2-(4-chlorophenoxy)ethanone] | > 10 | > 10 |  | 
Nc1nc(N2CCN(C(=O)COc3cccc([N+](=O)[O-])c3)CC2)c2nc(-c3ccc(F)cc3)oc2n1 [Example 193, 5-amino-2-(4-fluorophenyl)-7-(4-[2-(3-nitrophenoxy)acetyl]-piperazin-1-yl)-oxazolo[5,4-d]pyrimidine] | > 10 | > 10 |  | 
COc1cccc(-c2nc3c(N4CCN(C(=O)COc5ccc(Cl)cc5)CC4)nc(N)nc3s2)c1 [Example 124, 5-amino-7-[4-(4-chlorophenoxyacetyl)piperazin-1-yl]-2-(3-methoxyphenyl)thiazolo[5,4-d]pyrimidine] | 2.29 | 0.96 |  | 
Nc1nc(N2CCN(C(=O)COc3ccc(Cl)cc3)CC2)c2nc(-c3ccc(Cl)cc3)sc2n1 [Example 123, 5-amino-7-[4-(4-chlorophenoxyacetyl)piperazin-1-yl]-2-(4-chlorophenyl)thiazolo[5,4-d]pyrimidine] | 3.73 | 1.2 |  | 
Nc1nc(N2CCN(C(=O)COc3ccc(Cl)cc3)CC2)c2nc(-c3ccc(Br)cc3)[nH]c2n1 [Example 391, 1-(4-(2-amino-8-(4-bromophenyl)-9H-purin-6-yl)piperazin-1-yl)-2-(4-chlorophenoxy)ethanone] | 2.14 | 3.65 |  | 
Nc1nc(N2CCN(c3ccc(Cl)cc3)CC2)c2nc(-c3ccc(F)cc3)[nH]c2n1 [Example 414, 6-(4-(4-chlorophenyl)piperazin-1-yl)-8-(4-fluorophenyl)-9H-purin-2-amine] | > 10 | > 10 |  | 
Nc1nc(N2CCN(C(=O)COc3ccc(Cl)cc3)CC2)c2cc(-c3ccccc3)sc2n1 [Example 329, 1-(4-(2-amino-6-phenylthieno[2,3-d]pyrimidin-4-yl)piperazin-1-yl)-2-(4-chlorophenoxy)ethanone] | 13.7 | > 10 |  | 
Cc1cc(Cl)ccc1OCC(=O)N1CCN(c2nc(N)nc3sc(-c4ccc(F)cc4)nc23)CC1 [Example 213, 1-(4-(5-amino-2-(4-fluorophenyl)thiazolo[5,4-d]pyrimidin-7-yl)piperazin-1-yl)-2-(4-chloro-2-methylphenoxy)ethanone] | 5.25 | 6.72 |  | 
Nc1nc(N2CCN(C(=O)COc3ccc(Cl)cc3)CC2)c2nc(-c3ccccn3)sc2n1 [Example 282, 1-(4-(5-amino-2-(pyridin-2-yl)thiazolo[5,4-d]pyrimidin-7-yl)piperazin-1-yl)-2-(4-chlorophenoxy)ethanone] | 0.56 | 0.92 |  | 
Nc1nc(N2CCN(C(=O)COc3ccc(Cl)cc3)CC2)c2cc(-c3ccc(F)cc3)sc2n1 [Example 326, 1-(4-(2-amino-6-(4-fluorophenyl)thieno[2,3-d]pyrimidin-4-yl)piperazin-1-yl)-2-(4-chlorophenoxy)ethanone] | 8.97 | > 10 |  | 
